This note sets out measurements from ChEMBL document CHEMBL4346657, “Anticancer activity, dual prooxidant/antioxidant effect and apoptosis induction profile of new bichalcophene-5-carboxamidines” (Eur J Med Chem, 2019).

Data set [1] deals with HCT-116. Kind of data set: […] in CDK1 mRNA expression in human HCT116 cells at 100 nM after 6 hrs hrs by SYBR green dye-based qRT-PCR analysis relative to control. Format: functional. For orientation: Real-time PCR tracks product formation cycle by cycle.
In data set [2] the test system is HCT-116. As to the kind of experiment: Induction of apoptosis in human HCT116 cells assessed as increase in caspase 3 mRNA expression at 100 nM after 6 hrs hrs by SYBR green dye-based qRT-PCR analysis relative to control. The class given is functional.
The species named for the next data set is Homo sapiens. Kind of data set: (§1) Selectivity index, ratio of IC50 for human WI38 cells to GI50 for human NCI60 cells.
The test system of data set [3] is HCT-116. As to the kind of experiment: Induction of apoptosis in human HCT116 cells assessed as increase in p53 mRNA expression at 100 nM after 6 hrs hrs by SYBR green dye-based qRT-PCR analysis relative to control. Format: functional.
Data set [4] relates to HCT-116. As to the kind of experiment: Induction of apoptosis in human HCT116 cells assessed as increase in caspase 9 mRNA expression at 100 nM after 6 hrs hrs by SYBR green dye-based qRT-PCR analysis relative to control. Format: functional.
For another data set, the system named is WI-38. Kind of data set: Cytotoxicity activity against human WI38 cells assessed as reduction in cell viability measured after 48 hrs by MTT assay. Format: cell-based. Conditions: WI-38, 48 h. On the technique in general: Tetrazolium assays rely on reduction of a dye to a coloured formazan, in cell work by metabolically active cells.
In data set [5] the test system is HCT-116. As to the kind of experiment: Reduction in CDK1 mRNA expression in human HCT116 cells at 100 nM after 6 hrs hrs by SYBR green dye-based qRT-PCR analysis relative to control. Conditions: HCT-116, 6 h. The class given is functional.
Data set [6] can be described thus: Haemolytic activity in human erythrocytes assessed as induction of hemolysis at 10 mM after 30 mins relative to H202. Format: cell-based, Erythrocyte. The conditions noted are these: read-out: Activity.
The test system of data set [7] is Erythrocyte. Kind of data set: (§2) Haemolytic activity in human erythrocytes assessed as induction of hemolysis at 0.625 mM after 30 mins relative to H202. Format: cell-based. The conditions noted are these: erythrocyte, 0.5 h, 625 µM.
In data set [8] the test system is Erythrocyte. As to the kind of experiment: (§3) Haemolytic activity in human erythrocytes assessed as induction of hemolysis at 1.25 mM after 30 mins relative to H202. The class given is cell-based. Conditions: erythrocyte, 0.5 h, 1250 µM.
Data set [9] in a line: Haemolytic activity in human erythrocytes assessed as induction of hemolysis at 5 mM after 30 mins relative to H202. Format: cell-based, Erythrocyte. The conditions noted are these: read-out: Activity.
Data set [10] in a line: Antioxidant activity assessed as DPPH radical scavenging activity incubated in dark for 30 mins by spectrophotometric method relative to ascorbic acid. The class given is functional. On the technique in general: DPPH is a stable violet radical that fades when it is reduced.
A short description of data set [11]: Haemolytic activity in human erythrocytes assessed as induction of hemolysis at 2.5 mM after 30 mins relative to H202. Format: cell-based, Erythrocyte. The conditions noted are these: erythrocytes, read-out: Activity.
Data set [12] is described as follows: Antioxidant activity assessed as ABTS radical scavenging activity by spectrophotometric method relative to ascorbic acid. The class given is functional.
Data set [13] can be described thus: Antioxidant activity assessed as DPPH radical scavenging activity incubated in dark for 30 mins by spectrophotometric method relative to control. Format: functional. Details: concentration or dose not given beside the values.
The nature of data set [14]: as §1.
The nature of data set [15]: as §2. The class given is cell-based, Erythrocyte. The conditions noted are these: erythrocytes, read-out: Activity.
Data set [16] is described as follows: as §3. Conditions: erythrocytes, read-out: Activity. The class given is cell-based, Erythrocyte.
Data set [17] is described as follows: Antioxidant activity assessed as ABTS radical scavenging activity by spectrophotometric analysis relative to control. Format: functional. Set-up: concentration or dose not given beside the values. Conditions: dose or concentration not given here.
The nature of data set [18]: Antioxidant activity assessed as hydroxyl radical scavenging activity after 1 hr by salicylic acid-based Fenton reaction assay. The class given is functional.
A further data set has as its system K562. Kind of data set: Antiproliferative activity against human K562 cells assessed as growth inhibition after 48 hrs by sulforhodamine B assay. Format: functional, cell-based. Conditions: K562, 48 h.
The nature of data set [19]: Pro-oxidant activity assessed as increase in bleomycin-Fe2+ induced calf thymus DNA damage at 2 mM after 1 hr by thiobarbituric acid based absorbance analysis.

Structures are written as SMILES. Active and inactive are the calls of the source. The calls are words filed in the database; no cut-off is given here.

For orientation: inhibition means the percentage by which the read-out fell short of the control.

`O=c1[nH]cc(F)c(=O)[nH]1` [FLUOROURACIL]: the “fold change (FC)” value with HCT-116 [1] is 0.48; in the data set with HCT-116 [2], 3.92; in the data set on HCT-116 [3], 1.48; with HCT-116 [4] it was 4.53. In addition, in the data set filed under Homo sapiens, the “Selectivity Index” value is “inactive”. In the data set with WI-38, the IC50 was 8.4 µM. Besides, the inhibition at 0.1 µM with HCT-116 [5] fell in the range of 50 to 52%.
As to `O=C1O[C@H]([C@@H](O)CO)C(O)=C1O` [ASCORBIC ACID], in data set [6], the hemolysis at 0.5 h, 10000 µM was found to be 16.3%. In addition, the Activity result with Erythrocyte [7] and with Erythrocyte [8] was “Non-Toxic” each time. Also, the hemolysis at 0.5 h, 5000 µM in data set [9] worked out at 8%. For the same molecule, the fold change (FC) in [10] and in data set [12] was 1 in each case. Also, in [11], the hemolysis at 0.5 h, 2500 µM stood at 4%.
With `COc1ccc(-c2ccc(-c3ccc(C(=N)N)s3)s2)cc1`, the “fold change (FC)” value in the data set on HCT-116 [1] came out at 0.91; in the data set on HCT-116 [2], 2.51; with HCT-116 [3], 1.06; with HCT-116 [4] it was 2.38; in [10], 0.6; in [12], 0.6. The inhibition in data set [13] is 51.9%; in [17] it was 59.2%. Besides, the hemolysis at 0.5 h, 10000 µM in data set [6] was found to be 92.7%. The “Selectivity Index” value in data set [14] amounted to 43. The hemolysis at 0.5 h, 625 µM in data set [15] turned out to be 4%. Further, the hemolysis at 0.5 h, 1250 µM in [16] is 17.3%. For the same molecule, the IC50 in the data set on WI-38 was 12.9 µM; with K562 (read-out: IC50) it was 0.18 µM; in the data set with K562 (read-out: pIC50 (converted)), 19500 µM. Also, in [9], the hemolysis at 0.5 h, 5000 µM turned out to be 63.7%. The outcome in data set [18] and in data set [19] was Active. Further, the hemolysis at 0.5 h, 2500 µM in data set [11] was found to be 41%.
Consider `N=C(N)c1ccc(-c2ccc(-c3ccccc3)s2)s1`, for which the “fold change (FC)” value was 0.88 in the data set with HCT-116 [1]; 2.39 in the data set on HCT-116 [2]; 1.1 in the data set with HCT-116 [3]; 2.47 in the data set with HCT-116 [4]; 0.6 in data set [10]; 0.7 in data set [12]. Further, the figures for the inhibition in [13] and in data set [17] were 53% and 61.7%, respectively. Further, the hemolysis at 0.5 h, 10000 µM in data set [6] worked out at 85.1%. In [14], the “Selectivity Index” value is listed as 38.3. Besides, the Activity entry with Erythrocyte [7] and with Erythrocyte [8] was “Non-Toxic” throughout. Further, the IC50 is 49.1 µM in the data set on WI-38, 0.24 µM in the data set with K562 (read-out: IC50) and 38000 µM in the data set with K562 (read-out: pIC50 (converted)). In addition, the hemolysis at 0.5 h, 5000 µM in data set [9] is 56.7%. The outcome in [18] and in data set [19] was Active. Further, in data set [11], the hemolysis at 0.5 h, 2500 µM worked out at 15.3%.
For the molecule `COc1cccc(-c2ccc(-c3ccc(C(=N)N)s3)s2)c1`, the “fold change (FC)” value in the data set on HCT-116 [1] was found to be 0.93; in the data set on HCT-116 [2], 3.71; with HCT-116 [3], 0.89; in the data set with HCT-116 [4], 1.01; in data set [10], 0.5; in data set [12], 0.6. Besides, the inhibition turned out to be 47.5% in data set [13] and 58.2% in data set [17]. The hemolysis at 0.5 h, 10000 µM in [6] was 79%. In addition, the “Selectivity Index” value in [14] turned out to be 148.4. The Activity entry with Erythrocyte [7] is “Non-Toxic”. Also, in data set [16], the hemolysis at 0.5 h, 1250 µM stood at 3.1%. Also, the values for the IC50 in the data set with WI-38, in the data set with K562 (read-out: IC50) and in the data set on K562 (read-out: pIC50 (converted)) were 77.2 µM, 0.18 µM and 19500 µM, respectively. Besides, the hemolysis at 0.5 h, 5000 µM in data set [9] was 39%. Also, the outcome in data set [18] and in data set [19] was Active. In addition, in data set [11], the hemolysis at 0.5 h, 2500 µM stood at 16.1%.
